Measured values from patent US9700637B2, “Reaction-based fluorescent probes for detecting zinc” (Massachusetts Institute of Technology, priority 2013, dated 2017).

Tests used:
Experiment in all cases: Mitochondrial zinc uptake imaging in prostate cells
[1] = test system: RWPE-2 cells; type: cell-based; settings: RWPE-2, 50 μM ZnCl2 KSFM, 24 h
Description: (§1) FIG. 25 depicts decreased mitochondrial zinc uptake in cancerous cell lines. RWPE-1, RWPE-2, and PC-3 prostate cell lines were incubated for 24 h in medium supplemented with (+) and without (−) 50 μM ZnCl2. RWPE-1 is the only cell line that has a statistically significant (p<0.001) increase in mitochondrial zinc uptake when incubated in zinc-enriched media.
(§2) With a new mitochondrial-targeting sensor in hand, we used DA-ZP1-TPP to investigate the ability of prostate cell lines to accumulate zinc within their mitochondria. RWPE-1 and RWPE-2 are a pair of genetically similar cell lines that retain normal epithelial cell morphology, express cytokeratin markers for prostate epithelial cells, and are hormone sensitive. […] To explore the ability of RWPE-1 and -2 cells to sequester zinc in mitochondria, we measured the fluorescence intensity of DA-ZP1-TPP in both lines after the cells were bathed in normal or zinc-enriched (50 μM ZnCl2) keratinocyte serum-free medium (KSFM) for 24 h prior to imaging. RWPE-1 cells bathed in zinc-enriched medium have a fluorescence signal intensity that is ˜2.3-fold higher than cells bathed in normal medium (FIG. 25). […] Importantly, in both cell lines the observed fluorescence signals from DA-ZP1-TPP are sensitive to ZnPT and TPEN and have good correlation with MitoTracker Red, the Pearson's r values being 0.68±0.09 and 0.59±0.1 for RWPE-1 and -2, respectively. […]

[2] = test system: RWPE-1 cells; type: cell-based; settings: RWPE-1, 50 μM ZnCl2 KSFM, 24 h
Description: as §1, §2

[3] = test system: PC-3 cells; type: cell-based, human
Description: as §1, §2

## CC(=O)Oc1c(Cl)cc2c(c1CN(Cc1ccccn1)Cc1ccccn1)Oc1c(cc(Cl)c(OC(C)=O)c1CN(Cc1ccccn1)Cc1ccccn1)C21OC(=O)c2ccc(C(=O)NCC[P+](c3ccccc3)(c3ccccc3)c3ccccc3)cc21 [DA-ZP1-TPP]
[1]
  increase in fluorescence signal, zinc-enriched vs normal medium: no statistically significant increase
[2]
  fluorescence signal intensity, zinc-enriched vs normal medium: ~2.3 fold
[3]; PC-3, 50 μM ZnCl2, RMPI 1640 with 10% FBS, 24 h
  increase in sensor fluorescence intensity, zinc-enriched medium: no statistically significant increase
[3]; PC-3, serum-free RMPI 1640, 15 μM ZnCl2, 3 h
  increase in fluorescence intensity, zinc-supplemented serum-free medium: no statistically significant increase
